For orientation: Emax means the maximal effect, on the per cent scale that the assay sets.

This assay deals with D2 receptor (Homo sapiens, UniProt P14416). Put plainly: [3H]Thymidine uptake assay for D2 intrinsic activity. To be noted: test compound 1 μM, 1 μM Quinpirole = 100% intrinsic activity. In kind it is cell-based.
Chain of D2 receptor (P14416 whole entry): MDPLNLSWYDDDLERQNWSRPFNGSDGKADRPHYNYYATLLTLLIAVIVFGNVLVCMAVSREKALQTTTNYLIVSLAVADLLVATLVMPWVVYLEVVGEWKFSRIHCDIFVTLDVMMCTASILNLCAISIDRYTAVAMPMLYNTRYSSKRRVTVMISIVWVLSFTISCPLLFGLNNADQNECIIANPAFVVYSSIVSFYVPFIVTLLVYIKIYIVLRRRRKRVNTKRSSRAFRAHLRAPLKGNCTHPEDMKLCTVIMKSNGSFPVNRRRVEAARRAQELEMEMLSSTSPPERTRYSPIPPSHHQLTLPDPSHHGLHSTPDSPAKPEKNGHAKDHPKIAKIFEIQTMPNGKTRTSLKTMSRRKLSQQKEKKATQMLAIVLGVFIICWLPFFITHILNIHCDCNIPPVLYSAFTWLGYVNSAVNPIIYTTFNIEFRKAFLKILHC

Under “Table 1”, `CC1(C)CC(=O)Nc2nc(OCCCCN3CCN(c4cccc(C5CC5)n4)CC3)ccc21` [Example D22, 7-{4-[4-(6-Cyclopropyl-pyridin-2-yl)-piperazin-1-yl]-butoxy}-4,4-dimethyl-3,4-dihydro-1H-[1,8]naphthyridin-2-one] had a maximal response (Emax) at 1 µM of 42%.
Still for that read-out and setting: to `CCc1ccccc1N1CCN(CCCCOc2ccc3c(n2)NC(=O)CC3(C)C)CC1` [Example D23, 7-{4-[4-(2-Ethyl-phenyl)-piperazin-1-yl]-butoxy}-4,4-dimethyl-3,4-dihydro-1H-[1,8]naphthyridin-2-one] belongs 33%.
In turn, `CC(C)COc1ccccc1N1CCN(CCCCOc2ccc3c(n2)NC(=O)CC3(C)C)CC1` [Example D24, 7-{4-[4-(2-Isobutoxy-phenyl)-piperazin-1-yl]-butoxy}-4,4-dimethyl-3,4-dihydro-1H-[1,8]naphthyridin-2-one] had an Emax at 1 µM (Table 1) of 32%.
Under “Table 1”, `CC(C)Oc1ccccc1N1CCN(CCCCOc2ccc3c(n2)NC(=O)CC3(C)C)CC1` [Example D25, 7-{4-[4-(2-Isopropoxy-phenyl)-piperazin-1-yl]-butoxy}-4,4-dimethyl-3,4-dihydro-1H-[1,8]naphthyridin-2-one] yielded an Emax at 1 µM of 31%.
In turn, `O=c1ncc2ccc(OCCCCN3CCN(c4cccc5c4OCCC5)CC3)nc2[nH]1` [Example E1′, 7-[4-(4-Chroman-8-yl-piperazin-1-yl)-butoxy]-1H-pyrido[2,3-d]pyrimidin-2-one] came in with an Emax at 1 µM (Table 2) of 12%.
The same measure, in the same setting: the result for `O=C1NCc2ccc(OCCCCN3CCN(c4cccc5c4OCCC5)CC3)nc2N1` [Example E2′, 7-[4-(4-Chroman-8-yl-piperazin-1-yl)-butoxy]-3,4-dihydro-1H-pyrido[2,3-d]pyrimidin-2-one] reads 9%.
In turn, `O=C1CCc2cc(F)c(OCCCCN3CCN(c4cccc(Cl)c4Cl)CC3)nc2N1` [Example E3, 7-{4-[4-(2,3-Dichloro-phenyl)-piperazin-1-yl]-butoxy}-6-fluoro-3,4-dihydro-1H-[1,8]naphthyridin-2-one] yielded an Emax at 1 µM (Table 1) of 31%.
Consider `O=C1NCc2ccc(OCCCCN3CCN(c4cccc5c4OCC5)CC3)nc2N1` [Example E3′, 7-{4-[4-(2,3-Dihydro-benzofuran-7-yl)-piperazin-1-yl]-butoxy}-3,4-dihydro-1H-pyrido[2,3-d]pyrimidin-2-one], for which the Emax at 1 µM (Table 2) is 8%.
As for `O=C1CCc2cc(F)c(OCCCCN3CCN(c4cccc5ccccc45)CC3)nc2N1` [Example E4, 6-Fluoro-7-[4-(4-naphthalen-1-yl-piperazin-1-yl)-butoxy]-3,4-dihydro-1H-[1,8]naphthyridin-2-one], the Emax at 1 µM (Table 1) came out at 38%.
Take `O=C1NCc2ccc(OCCCCN3CCN(c4cccc5c4OCCCO5)CC3)nc2N1` [Example E4′, 7-{4-[4-(3,4-Dihydro-2H-benzo[b][1,4]dioxepin-6-yl)-piperazin-1-yl]-butoxy}-3,4-dihydro-1H-pyrido[2,3-d]pyrimidin-2-one]: the maximal effect (Emax) at 1 µM (Table 2) came out at 26%.
Molecule `O=C1CCc2cc(F)c(OCCCCN3CCN(c4cccc5c4CCC5)CC3)nc2N1` [Example E5, 6-Fluoro-7-[4-(4-indan-4-yl-piperazin-1-yl)-butoxy]-3,4-dihydro-1H-[1,8]naphthyridin-2-one] showed an Emax at 1 µM (Table 1) of 21%.
`O=C1CCc2cc(Cl)c(OCCCCN3CCN(c4cccc5ccccc45)CC3)nc2N1` [Example E6, 6-Chloro-7-[4-(4-naphthalen-1-yl-piperazin-1-yl)-butoxy]-3,4-dihydro-1H-[1,8]naphthyridin-2-one] showed an Emax at 1 µM (Table 1) of 32%.
Same read-out and setting: to `O=C1CCc2cc(Br)c(OCCCCN3CCN(c4cccc(Cl)c4Cl)CC3)nc2N1` [Example E7, 6-Bromo-7-{4-[4-(2,3-dichloro-phenyl)-piperazin-1-yl]-butoxy}-3,4-dihydro-1H-[1,8]naphthyridin-2-one] belongs 19%; to `O=C1CCc2cc(Br)c(OCCCCN3CCN(c4cccc5ccccc45)CC3)nc2N1` [Example E8, 6-Bromo-7-[4-(4-naphthalen-1-yl-piperazin-1-yl)-butoxy]-3,4-dihydro-1H-[1,8]naphthyridin-2-one], 26%; to `Cc1cc(OCCCCN2CCN(c3cccc(Cl)c3Cl)CC2)nc2c1CCC(=O)N2` [Example E9, 7-{4-[4-(2,3-Dichloro-phenyl)-piperazin-1-yl]-butoxy}-5-methyl-3,4-dihydro-1H-[1,8]naphthyridin-2-one], 34%.
On the same count and under the same terms, the result for `Cc1cc(OCCCCN2CCN(c3cccc4ccccc34)CC2)nc2c1CCC(=O)N2` [Example E10, 5-Methyl-7-[4-(4-naphthalen-1-yl-piperazin-1-yl)-butoxy]-3,4-dihydro-1H-[1,8]naphthyridin-2-one] reads 31%; that for `Cc1cc(OCCCCN2CCN(c3cccc4c3CCCC4)CC2)nc2c1CCC(=O)N2` [Example E11, 5-Methyl-7-{4-[4-(5,6,7,8-tetrahydro-naphthalen-1-yl)-piperazin-1-yl]-butoxy}-3,4-dihydro-1H-[1,8]naphthyridin-2-one], 19%.
Still for that read-out and setting: the result for `Cc1cc(OCCCCN2CCN(c3cccc4c3CCC4)CC2)nc2c1CCC(=O)N2` [Example E12, 7-[4-(4-Indan-4-yl-piperazin-1-yl)-butoxy]-5-methyl-3,4-dihydro-1H-[1,8]naphthyridin-2-one] reads 39%; that for `O=C1CCc2c(C(F)(F)F)cc(OCCCCN3CCN(c4cccc5c4CCC5)CC3)nc2N1` [Example E13, 7-[4-(4-Indan-4-yl-piperazin-1-yl)-butoxy]-5-trifluoromethyl-3,4-dihydro-1H-[1,8]naphthyridin-2-one], 11%; that for `O=C1CCc2c(C(F)(F)F)cc(OCCCCN3CCN(c4cccc5ccccc45)CC3)nc2N1` [Example E14, 7-[4-(4-Naphthalen-1-yl-piperazin-1-yl)-butoxy]-5-trifluoromethyl-3,4-dihydro-1H-[1,8]naphthyridin-2-one], 36%.
Regarding `O=C1CCc2c(C(F)(F)F)cc(OCCCCN3CCN(c4cccc5c4CCCC5)CC3)nc2N1` [Example E15, 7-{4-[4-(5,6,7,8-Tetrahydro-naphthalen-1-yl)-piperazin-1-yl]-butoxy}-5-trifluoromethyl-3,4-dihydro-1H-[1,8]naphthyridin-2-one], where the note is “Table 1”, the Emax at 1 µM came out at 20%.
For the molecule `O=C1NCc2ccc(OCCCCN3CCN(c4cccc5c4CCC5)CC3)nc2N1` [Example F3, 7-[4-(4-Indan-4-yl-piperazin-1-yl)-butoxy]-3,4-dihydro-1H-pyrido[2,3-d]pyrimidin-2-one], the Emax at 1 µM (Table 1) was 15%.
Same read-out and setting: the result for `O=C1NCc2ccc(OCCCCN3CCN(c4cccc5c4CCCC5)CC3)nc2N1` [Example F4, 7-{4-[4-(5,6,7,8-Tetrahydro-naphthalen-1-yl)-piperazin-1-yl]-butoxy}-3,4-dihydro-1H-pyrido[2,3-d]pyrimidin-2-one] reads 23%; that for `O=C1NCc2ccc(OCCCCN3CCN(c4cccc5ccc(F)cc45)CC3)nc2N1` [Example F5, 7-{4-[4-(7-Fluoro-naphthalen-1-yl)-piperazin-1-yl]-butoxy}-3,4-dihydro-1H-pyrido[2,3-d]pyrimidin-2-one], 32%; that for `N#Cc1ccc2cccc(N3CCN(CCCCOc4ccc5c(n4)NC(=O)NC5)CC3)c2c1` [Example F6, 8-{4-[4-(2-Oxo-1,2,3,4-tetrahydro-pyrido[2,3-d]pyrimidin-7-yloxy)-butyl]-piperazin-1-yl}-naphthalene-2-carbonitrile], 37%.
